Results: PMC7022278, “Alpha-Amylase and Alpha-Glucosidase Enzyme Inhibition and Antioxidant Potential of 3-Oxolupenal and Katononic Acid Isolated from Nuxia oppositifolia” (Biomolecules, 2019)
Several values for one entry are separate records, joined by “and”; a condition that tells them apart may be missing. Equal entries are not always repeated.

What was measured:
α-amylase = target: T1, α-amylase (Sus scrofa, UniProt P00690); test: Fluorescence quenching-based binding study, α-amylase; settings: 298 K; for Number of Binding Sites n: pH 6.8
T1 construct: purchased Sigma-Aldrich Co., St Louis, MO, USA
T1 sequence (P00690 16-511): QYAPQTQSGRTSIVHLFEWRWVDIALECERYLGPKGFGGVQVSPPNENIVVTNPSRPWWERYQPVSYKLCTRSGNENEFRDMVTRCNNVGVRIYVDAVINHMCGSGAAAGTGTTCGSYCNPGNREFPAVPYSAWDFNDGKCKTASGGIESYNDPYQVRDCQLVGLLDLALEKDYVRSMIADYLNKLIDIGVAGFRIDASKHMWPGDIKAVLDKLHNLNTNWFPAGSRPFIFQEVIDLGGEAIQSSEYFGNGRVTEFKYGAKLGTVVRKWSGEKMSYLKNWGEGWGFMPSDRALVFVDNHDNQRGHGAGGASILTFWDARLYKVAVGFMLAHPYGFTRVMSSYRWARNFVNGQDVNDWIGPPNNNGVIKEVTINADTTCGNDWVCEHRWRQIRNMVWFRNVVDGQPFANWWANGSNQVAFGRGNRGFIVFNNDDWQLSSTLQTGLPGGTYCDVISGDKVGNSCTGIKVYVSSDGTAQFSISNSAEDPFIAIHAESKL
Description: (§1) Proteins were excited at 295 nm and the fluorescence spectra were recorded in the 300–450 nm range. The excitation and emission slit widths were set at 5 nm each. The concentration of proteins was fixed at 2 µM while the concentration of quenchers was varied. The inner filter effect contributed by quenchers was corrected using the following relation. (2) Fcorr=Fobs×e^(Aex+Aem)/2 where Fcorr is the corrected fluorescence intensity, Fobs is the observed fluorescence intensity, Aex is the absorbance at the excitation wavelength, and Aem is the absorbance at the emission wavelength.
(§2) Observing quenching in the fluorescence intensity of a protein in the presence of a ligand is a powerful tool in determining the binding parameters such as binding affinity and Gibb’s free energy of stabilization. Here, we have followed quenching in the fluorescence intensity of α-amylase and α-glucosidase in the presence of 3-oxolupenal and katononic acid at 298 K (Figure 4 and Figure 5). […] The binding parameters for the interaction were deduced using the following Stern–Volmer and modified Stern–Volmer equations. (3) Fo/F=1+KSV[Q]=1+kqτo[Q] (4) log(Fo−F/F)=logKa+nlog[Q] where, Fo and F are the fluorescence intensities of enzymes (α-amylase and α-glucosidase) in the absence and presence of ligands (3-oxolupenal and katononic acid); KSV is the Stern–Volmer constant; [Q] is the molar concentration of ligands (3-oxolupenal and katononic acid); kq is the bimolecular quenching rate constant; τo is the lifetime of enzymes’ fluorescence in the absence of ligands (=5.71 × 10^−9 s); Ka is the binding constant; n is the number of binding sites on the enzyme.

[1] = ABTS radical cation scavenging activity; settings: for ABTS Scavenging Activity (IC50 value): means of three experiments ± SD; for IC50: molar value in brackets
Description: The ABTS radical scavenging activity of the samples was measured using the method of Re et al. (1999) with slight modification. ABTS solution in water (7 mM concentration) and an aqueous solution of potassium persulfate (2.45 mM) were prepared. The two solutions were mixed in the volume ratio 1:1 and stored in the dark 6 h at room temperature to produce the ABTS radical. The blue chromophore, which has a characteristic absorbance at 734 nm, was generated by reacting equal amount of ABTS and potassium persulfate solution. The ABTS stock solution was diluted with ethanol to an absorbance of 0.70 ± 0.02 at 734 nm and equilibrated at 30 °C. The crude extract, different fractions and isolated compounds at 100 µg/mL concentrations were mixed with 2.9 mL of diluted ABTS radical cation solution. The reaction was incubated at 30 °C for 20 min, and the absorbance at 734 nm was measured. The affinity of the test sample to quench the ABTS free radical was evaluated using Equation (1).

[2] = DPPH radical scavenging activity; settings: for DPPH Scavenging Activity (IC50 value): means of three experiments ± SD; for IC50: molar value in brackets
Description: The DPPH radical scavenging method measured the antioxidant activity following the method of Braca et al. (2001) with slight modification. The crude extract, fractions, and compounds at 100 µg/mL concentrations were added to 3 mL of 0.004% DPPH solution. In the control sample, methanol was added in place of test extract/fractions/compounds. The DPPH is violet in color at room temperature and the color changes to yellow by either the process of hydrogen or electron donation by antioxidants. Absorbance was measured at 520 nm after 30 min incubation. The percent inhibition was calculated using Equation (1).

α-glucosidase [3] = test: Inhibition assay for glucosidase activity (pNPG); format: biochemical; settings: for Inhibition of α-Glucosidase (IC50 value): means of three experiments ± SD; for IC50: molar value in brackets
Description: Glucosidase inhibition assay was carried out by following the method of Elya et al. (2008). The different fractions of the plant and compounds were prepared using 5% dimethyl sulfoxide (DMSO). […] Next, 50 μL of 5 mM p-nitrophenyl-α-D-glucopyranoside (pNPG) were added to the mixture to start the reaction. The reaction mixture was incubated at 37 °C for 60 min and stopped by adding 2.5 mL of 0.1 M Na2CO3. […] The mean values were obtained from triplicate experiments. The inhibition of glucosidase activity was calculated as percentage inhibition using Equation (1).

[4] = target: T2, Porcine α-amylase (pancreatic α-amylase) (Sus scrofa, UniProt P00690); test: Inhibition assay for amylase activity (starch/DNS); format: biochemical
T2 construct: purchased Sigma-Aldrich Co., St Louis, MO, USA
T2 sequence (P00690 16-511): T1 sequence (P00690 16-511)
Description: The different fractions of the plant and compounds were prepared using 5% dimethyl sulfoxide (DMSO). Fraction/compound (500 µL) of 100 µg/mL concentration (i.e., 50 µg) and 500 µL of 20 mM sodium phosphate buffer (pH 6.8) containing 20 µL of amylase (0.5 mg/mL) were incubated at 25 °C for 10 min. After pre-incubation, 500 µL of 1% starch solution in 0.02 M sodium phosphate buffer (pH 6.9) were added to each tube and incubated for 15 min. The reaction was stopped with 1.0 mL of dinitrosalicyclic acid. The test tubes were then incubated in a boiling water bath for 5 min and cooled to room temperature. The reaction mixture was then diluted after adding 10 mL distilled water, and the absorbance (Abs) was measured at 540 nm. Mean values were obtained from triplicate experiments. The control samples were prepared without any plant extracts/fractions/compounds. The percent inhibition of amylase activity was calculated using the following formula:(1) Inhibition(%)=(AbsControl−AbsCompound/AbsControl)×100 The mean values were obtained from triplicate experiments.

α-glucosidase [5] = test: Fluorescence quenching-based binding study, α-glucosidase; settings: 298 K
Description: as §1, §2

[6] = means of three experiments ± SD
[7] = pH 6.8, listed as Katononic Acid
[8] = pH 6.8, listed as katononic acid

Row | ABTS Scavenging Activity (IC50 value) [1] [µg/mL] | IC50 [1] [µM] | DPPH Scavenging Activity (IC50 value) [2] [µg/mL] | IC50 [2] [µM] | Bimolecular Quenching Rate Constant (kq) (α-glucosidase [5]; [7]) [M⁻¹ s⁻¹] | Stern–Volmer Constant (KSV) (α-glucosidase [5]; [7]) [M⁻¹] | Bimolecular Quenching Rate Constant (kq) (α-glucosidase [5]; [8]) | Stern–Volmer Constant (KSV) (α-glucosidase [5]; [8]) | Bimolecular Quenching Rate Constant (kq) (α-amylase; [7]) [M⁻¹ s⁻¹] | Stern–Volmer Constant (KSV) (α-amylase; [7]) [M⁻¹] | Bimolecular Quenching Rate Constant (kq) (α-amylase; [8]) | Stern–Volmer Constant (KSV) (α-amylase; [8]) | SMILES | Number of Binding Sites n (α-amylase) | Inhibition of α-Glucosidase (IC50 value) (α-glucosidase [3]) [µg/mL] | IC50 (α-glucosidase [3]) [µM] | IC50 [4, 6] [µM] | IC50 ([4]; molar value in brackets)
1 | 28.0 ± 1.9 | 127 | 16.6 ± 6.2 | 75.3 |  |  |  |  |  |  |  |  | Cc1cc(C(C)(C)C)c(O)c(C(C)(C)C)c1 [BHT, butylated hydroxytoluene, reference compound] |  |  |  |  | 
2 | 82.7 ± 4.7 | 182 | 87.5 ± 5.4 | 192 | 3.59e+13 | 205000 | ~10^13 M^−1 s^−1 | ~10^5 M^−1 | 2.77e+13 | 158000 | ~10^13 M^−1 s^−1 | ~10^5 M^−1 | CC1(C)C(=O)CC[C@]2(C)[C@H]3CC=C4[C@@H]5C[C@](C)(C(=O)O)CC[C@]5(C)CC[C@@]4(C)[C@]3(C)CC[C@@H]12 [Katononic acid, katononic acid] | 0.7646 | 88.6 ± 6.2 | 195 | 115 | 119 µM and 115 µM

Row | SMILES | ABTS Scavenging Activity (IC50 value) [1] [µg/mL] | IC50 [1] [µM] | DPPH Scavenging Activity (IC50 value) [2] [µg/mL] | IC50 [2] [µM] | Bimolecular Quenching Rate Constant (kq) (α-glucosidase [5]; [7]) [M⁻¹ s⁻¹] | Stern–Volmer Constant (KSV) (α-glucosidase [5]; [7]) [M⁻¹] | Bimolecular Quenching Rate Constant (kq) (α-glucosidase [5]; [8]) | Stern–Volmer Constant (KSV) (α-glucosidase [5]; [8]) | Bimolecular Quenching Rate Constant (kq) (α-amylase; [7]) [M⁻¹ s⁻¹] | Stern–Volmer Constant (KSV) (α-amylase; [7]) [M⁻¹] | Bimolecular Quenching Rate Constant (kq) (α-amylase; [8]) | Stern–Volmer Constant (KSV) (α-amylase; [8]) | Number of Binding Sites n (α-amylase) | Inhibition of α-Glucosidase (IC50 value) (α-glucosidase [3]) [µg/mL] | IC50 (α-glucosidase [3]) [µM] | IC50 [4, 6] [µM] | IC50 ([4]; molar value in brackets)
3 | C=C(C=O)[C@@H]1CC[C@]2(C)CC[C@]3(C)[C@H](CC[C@@H]4[C@@]5(C)CCC(=O)C(C)(C)[C@@H]5CC[C@]43C)[C@@H]12 [3-oxolupenal] | 84.2 ± 5.1 | 192 | 82.7 ± 6.7 | 188 |  |  |  |  |  |  |  |  | 1.0865 | 62.3 ± 2.4 | 142 | 105 | 102 µM and 105 µM
